The values that follow come from patent US11446287B2, “Compounds and methods for EP300 or CBP modulation and indications therefor” (Opna Immuno-Oncology SA, priority 2019, dated 2022).

Molecules are shown by their SMILES.

In this test the target is T1, Recombinant human CBP containing the bromodomain (CBP-BD (1043-1159)) (Homo sapiens, UniProt Q92793).
T1 construct: Recombinant human CBP bromodomain (CBP-BD (1043-1159)); made in house; host or cells: E. coli BL21-CodonPlus (DE3), modified pET vector
As to the kind of experiment: CBP Alphascreen binding assay. The settings on record: read-out: CREBBP (CBP) IC50. Put shortly:
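Buffer: 50 mM HEPES pH 7.5, 50 mM NaCl, 0.01% BSA, 0.01% Triton X-100, 2 mM DTT. The signal was normalised to plate controls and fitted with a four-parameter curve to give IC50.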
Background: Bead proximity is the source of the signal in Alpha formats.

T1 sequence (Q92793 1081-1197): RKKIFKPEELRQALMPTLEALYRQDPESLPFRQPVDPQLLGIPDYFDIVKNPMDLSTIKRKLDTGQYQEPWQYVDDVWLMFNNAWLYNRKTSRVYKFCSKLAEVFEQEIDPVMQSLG

As for `CCOc1cc(C(=O)O)c(F)cc1-c1cn(-c2ccc(F)cc2F)c2ncc(-c3c(C)noc3C)cc12` [P-0330, 4-(1-(2,4-difluorophenyl)-5-(3,5-dimethylisoxazol-4-yl)-1H-pyrrolo[2,3-b]pyridin-3-yl)-5-ethoxy-2-fluorobenzoic acid], the IC50 (usually the concentration needed to halve the response being measured) was in the range of 0.1 to 1000 nM.
For the compound `Cc1noc(C)c1-c1cnc2c(c1)c(-c1c(Cl)cc(C(=O)O)cc1OCC(F)F)cn2-c1cnc(N2CCC2)nc1` [P-0331, 4-(1-(2-(azetidin-1-yl)pyrimidin-5-yl)-5-(3,5-dimethylisoxazol-4-yl)-1H-pyrrolo[2,3-b]pyridin-3-yl)-3-chloro-5-(2,2-difluoroethoxy)benzoic acid], the IC50 lay within 0.1 to 1000 nM.
As for `Cc1noc(C)c1-c1cnc2c(c1)c(-c1c(Cl)cc(C(=O)O)cc1OCC(F)F)cn2-c1ccccc1` [P-0332, 3-chloro-5-(2,2-difluoroethoxy)-4-(5-(3,5-dimethylisoxazol-4-yl)-1-phenyl-1H-pyrrolo[2,3-b]pyridin-3-yl)benzoic acid], the figure is 0.1 to 1000 nM.
As for `Cc1noc(C)c1-c1cnc2c(c1)c(-c1c(Cl)cc(C(=O)O)cc1OCC(F)F)cn2[C@H]1CCOC1` [P-0333, (S)-3-chloro-5-(2,2-difluoroethoxy)-4-(5-(3,5-dimethylisoxazol-4-yl)-1-(tetrahydrofuran-3-yl)-1H-pyrrolo[2,3-b]pyridin-3-yl)benzoic acid], the figure is 0.1 to 1000 nM; as for `Cc1noc(C)c1-c1cnc2c(c1)c(-c1ccc(C(=O)O)cc1OC1CCC1)cn2-c1ncccc1C#N` [P-0334, 4-(1-(3-cyanopyridin-2-yl)-5-(3,5-dimethylisoxazol-4-yl)-1H-pyrrolo[2,3-b]pyridin-3-yl)-3-cyclobutoxybenzoic acid], 0.1 to 1000 nM; as for `Cc1noc(C)c1-c1cnc2c(c1)c(-c1ccc(C(=O)O)cc1OC(F)(F)F)cn2C1(CC#N)CCC1` [P-0335, 4-(1-(1-(cyanomethyl)cyclobutyl)-5-(3,5-dimethylisoxazol-4-yl)-1H-pyrrolo[2,3-b]pyridin-3-yl)-3-(trifluoromethoxy)benzoic acid], 0.1 to 1000 nM.
`Cc1noc(C)c1-c1cnc2c(c1)c(-c1ccc(C(=O)O)cc1OC(C)C)cn2-c1ncccc1C#N` [P-0336, 4-(1-(3-cyanopyridin-2-yl)-5-(3,5-dimethylisoxazol-4-yl)-1H-pyrrolo[2,3-b]pyridin-3-yl)-3-isopropoxybenzoic acid]: the IC50 was 0.1 to 1000 nM.
`Cc1noc(C)c1-c1cnc2c(c1)c(-c1ccc(C(=O)O)cc1OC1CC1)cn2-c1ncccc1C#N` [P-0337, 4-(1-(3-cyanopyridin-2-yl)-5-(3,5-dimethylisoxazol-4-yl)-1H-pyrrolo[2,3-b]pyridin-3-yl)-3-cyclopropoxybenzoic acid]: the half-inhibitory concentration (IC50) fell in the range of 0.1 to 1000 nM.
As for `Cc1noc(C)c1-c1cnc2c(c1)c(-c1ccc(C(=O)O)cc1OCC(F)F)cn2C(C1CC1)C1CC1` [P-0338, 4-(1-(dicyclopropylmethyl)-5-(3,5-dimethylisoxazol-4-yl)-1H-pyrrolo[2,3-b]pyridin-3-yl)-3-(2,2-difluoroethoxy)benzoic acid], the figure is 0.1 to 1000 nM; as for `COc1cc(C(=O)O)ncc1-c1cn(C(C2CC2)C2CC2)c2ncc(-c3c(C)noc3C)cc12` [P-0339, 5-(1-(dicyclopropylmethyl)-5-(3,5-dimethylisoxazol-4-yl)-1H-pyrrolo[2,3-b]pyridin-3-yl)-4-methoxypicolinic acid], 0.1 to 1000 nM; as for `Cc1noc(C)c1-c1cnc2c(c1)c(-c1c(Cl)cc(C(=O)O)cc1OCC(F)F)cn2C(C1CC1)C1CC1` [P-0340, 3-chloro-4-(1-(dicyclopropylmethyl)-5-(3,5-dimethylisoxazol-4-yl)-1H-pyrrolo[2,3-b]pyridin-3-yl)-5-(2,2-difluoroethoxy)benzoic acid], 0.1 to 1000 nM.
As for `Cc1noc(C)c1-c1cnc2c(c1)c(-c1ccc(C(=O)O)cc1OC1CCC1)cn2C1CCOCC1` [P-0341, 3-cyclobutoxy-4-(5-(3,5-dimethylisoxazol-4-yl)-1-(tetrahydro-2H-pyran-4-yl)-1H-pyrrolo[2,3-b]pyridin-3-yl)benzoic acid], the figure is 0.1 to 1000 nM; as for `Cc1noc(C)c1-c1cnc2c(c1)c(-c1ccc(C(=O)O)cc1OC(C)C)c(C)n2C(C1CC1)C1CC1` [P-0342, 4-(1-(dicyclopropylmethyl)-5-(3,5-dimethylisoxazol-4-yl)-2-methyl-1H-pyrrolo[2,3-b]pyridin-3-yl)-3-isopropoxybenzoic acid], 0.1 to 1000 nM; as for `Cc1noc(C)c1-c1cnc2c(c1)c(-c1ccc(C(=O)O)cc1OC(F)(F)F)c(C)n2C(C1CC1)C1CC1` [P-0343, 4-(1-(dicyclopropylmethyl)-5-(3,5-dimethylisoxazol-4-yl)-2-methyl-1H-pyrrolo[2,3-b]pyridin-3-yl)-3-(trifluoromethoxy)benzoic acid], 0.1 to 1000 nM.
As to `Cc1noc(C)c1-c1ccc2c(c1)c(-c1ccc(C(=O)O)cc1OC(F)(F)F)cn2C(C1CC1)C1CC1` [P-0344, 4-(1-(dicyclopropylmethyl)-5-(3,5-dimethylisoxazol-4-yl)-1H-indol-3-yl)-3-(trifluoromethoxy)benzoic acid], the concentration for half-maximal inhibition (IC50) was in the range of 0.1 to 1000 nM.
As for `Cc1noc(C)c1-c1cnc2c(c1)c(-c1ccc(C(=O)O)cc1OC(F)(F)F)c(C)n2-c1ncccc1C#N` [P-0345, 4-(1-(3-cyanopyridin-2-yl)-5-(3,5-dimethylisoxazol-4-yl)-2-methyl-1H-pyrrolo[2,3-b]pyridin-3-yl)-3-(trifluoromethoxy)benzoic acid], the figure is 0.1 to 1000 nM.
As for `Cc1noc(C)c1-c1cnc2c(c1)c(-c1c(Cl)cc(C(=O)O)cc1OC(F)(F)F)cn2[C@H]1CCOC1` [P-0346, (S)-3-chloro-4-(5-(3,5-dimethylisoxazol-4-yl)-1-(tetrahydrofuran-3-yl)-1H-pyrrolo[2,3-b]pyridin-3-yl)-5-(trifluoromethoxy)benzoic acid], the figure is 0.1 to 1000 nM; as for `Cc1noc(C)c1-c1cnc2c(c1)c(-c1ccc(C(=O)O)cc1OC1CCC1)cn2-c1cnc(N2CCC2)nc1` [P-0347, 4-(1-(2-(azetidin-1-yl)pyrimidin-5-yl)-5-(3,5-dimethylisoxazol-4-yl)-1H-pyrrolo[2,3-b]pyridin-3-yl)-3-cyclobutoxybenzoic acid], 0.1 to 1000 nM; as for `Cc1noc(C)c1-c1cnc2c(c1)c(-c1c(F)cc(C(=O)O)cc1OCC(F)F)cn2-c1cnc(N2CCC2)nc1` [P-0348, 4-(1-(2-(azetidin-1-yl)pyrimidin-5-yl)-5-(3,5-dimethylisoxazol-4-yl)-1H-pyrrolo[2,3-b]pyridin-3-yl)-3-(2,2-difluoroethoxy)-5-fluorobenzoic acid], 0.1 to 1000 nM.
`Cc1nn(C(F)F)cc1-n1cc(-c2ccc(C(=O)O)cc2OCC(F)F)c2cc(-c3c(C)noc3C)cnc21` [P-0349, 3-(2,2-difluoroethoxy)-4-(1-(1-(difluoromethyl)-3-methyl-1H-pyrazol-4-yl)-5-(3,5-dimethylisoxazol-4-yl)-1H-pyrrolo[2,3-b]pyridin-3-yl)benzoic acid]: the half-maximal inhibitory concentration (IC50) was in the range of 0.1 to 1000 nM.
The figure for `Cc1noc(C)c1-c1cnc2c(c1)c(-c1ccc(C(=O)O)cc1OC1CCC1)cn2[C@H]1CCOC1` [P-0350, (S)-3-cyclobutoxy-4-(5-(3,5-dimethylisoxazol-4-yl)-1-(tetrahydrofuran-3-yl)-1H-pyrrolo[2,3-b]pyridin-3-yl)benzoic acid] is 0.1 to 1000 nM.
Turning to `Cc1nn(C(F)F)cc1-n1cc(-c2ccc(C(=O)O)cc2OC2CCC2)c2cc(-c3c(C)noc3C)cnc21` [P-0351, 3-cyclobutoxy-4-(1-(1-(difluoromethyl)-3-methyl-1H-pyrazol-4-yl)-5-(3,5-dimethylisoxazol-4-yl)-1H-pyrrolo[2,3-b]pyridin-3-yl)benzoic acid], the half-maximal inhibitory concentration (IC50) is 0.1 to 1000 nM.
The figure for `Cc1noc(C)c1-c1cnc2c(c1)c(-c1c(Cl)cc(C(=O)O)cc1OCC(F)F)cn2-c1cnn(C(F)F)c1C` [P-0352, 3-chloro-5-(2,2-difluoroethoxy)-4-(1-(1-(difluoromethyl)-5-methyl-1H-pyrazol-4-yl)-5-(3,5-dimethylisoxazol-4-yl)-1H-pyrrolo[2,3-b]pyridin-3-yl)benzoic acid] is 0.1 to 1000 nM; for `Cc1noc(C)c1-c1cnc2c(c1)c(-c1ccc(C(=O)O)cc1OC1CCC1)cn2-c1cnn(C(F)F)c1C` [P-0353, 3-cyclobutoxy-4-(1-(1-(difluoromethyl)-5-methyl-1H-pyrazol-4-yl)-5-(3,5-dimethylisoxazol-4-yl)-1H-pyrrolo[2,3-b]pyridin-3-yl)benzoic acid] it is 0.1 to 1000 nM.
As for `Cc1noc(C)c1-c1cnc2c(c1)c(-c1ccc(C(=O)O)cc1OC(C)C)cn2-c1cnn(C(F)F)c1C` [P-0354, 4-(1-(1-(difluoromethyl)-5-methyl-1H-pyrazol-4-yl)-5-(3,5-dimethylisoxazol-4-yl)-1H-pyrrolo[2,3-b]pyridin-3-yl)-3-isopropoxybenzoic acid], the figure is 0.1 to 1000 nM.
The figure for `Cc1noc(C)c1-c1cnc2c(c1)c(-c1c(Cl)cc(C(=O)O)cc1OC(F)(F)F)cn2C1CCOCC1` [P-0355, 3-chloro-4-(5-(3,5-dimethylisoxazol-4-yl)-1-(tetrahydro-2H-pyran-4-yl)-1H-pyrrolo[2,3-b]pyridin-3-yl)-5-(trifluoromethoxy)benzoic acid] is 0.1 to 1000 nM; for `Cc1noc(C)c1-c1cnc2c(c1)c(-c1c(Cl)cc(C(=O)O)cc1OC1CCC1)cn2C(C1CC1)C1CC1` [P-0356, 3-chloro-5-cyclobutoxy-4-(1-(dicyclopropylmethyl)-5-(3,5-dimethylisoxazol-4-yl)-1H-pyrrolo[2,3-b]pyridin-3-yl)benzoic acid] it is 0.1 to 1000 nM; for `Cc1noc(C)c1-c1cnc2c(c1)c(-c1ccc(C(=O)O)cc1OC(C)C)cn2C1CCOCC1` [P-0357, 4-(5-(3,5-dimethylisoxazol-4-yl)-1-(tetrahydro-2H-pyran-4-yl)-1H-pyrrolo[2,3-b]pyridin-3-yl)-3-isopropoxybenzoic acid] it is 0.1 to 1000 nM.
